Assay results published in patent US8236794B2, “Treatment of mesothelioma” (Ed. Geistlich Soehne AG fuer Chemische Industrie, priority 2003, dated 2012).
Entries after “also recorded” stand apart in the source; their conditions may differ.

How the values were obtained:
[1] = cited from earlier work
malignant mesothelioma = test: Therapy of mesothelioma with taurolidine: single-patient case, two treatment cycles, intravenous plus intrapleural; type: in vivo, human
Source text: The following is a case involving treatment of an individual for two treatment cycles. Patient: Diagnosis: Malignant mesothelioma two yrs. ago (stage III according to IMIG stadiation) Prior treatments: Treated with CT with Cis-Platinum/Gemcitabine, Local recurrency with pleural effusion. Treated with taurolidine 2%, Two cycles of three weeks with taurolidine both intravenous and intrapleural administration I.V: 4 bottles daily for 5 days for three weeks (2 cycles) I.P: 1 bottle daily for 5 days for three weeks (2 cycles)

[2] = tested on: human malignant glioma cell line LN-229; test: Cell viability and Fas-ligand mediated apoptosis in glioma cells; type: cell-based; details: LN-229 cells; for Effect on destruction of cells by Fas-ligand: combined with Fas-ligand
Method: The present invention relates to the ability of methylol transfer agents, such as taurolidine, to induce cell toxicity, and to enhance Fas-ligand mediated apoptosis. Both taurolidine and its congener taurultam enhance the apoptotic effect of Fas-ligand in cancer cells at drug concentrations which per se show practically no effect on cell viability. For example, in the human malignant glioma cell line LN-229 cell viability was reduced directly following incubation with taurolidine or taurultam alone. […] Thus, the use of methylol transfer agents to induce apoptotic cell death provides a means for treating mesothelioma as in the present invention.

Row | SMILES | Water solubility [1] | Main side effects, I.P. (intrapleural) administration (malignant mesothelioma; I.P. 1 bottle taurolidine 2% daily for 5 days for three weeks (2 cycles)) | Main side effects, I.V. administration (malignant mesothelioma; I.V. 4 bottles taurolidine 2% daily for 5 days for three weeks (2 cycles)) | Side effects obliging discontinuance of the treatment (malignant mesothelioma; I.V. and I.P. administration, 2 cycles) | Clinical response (malignant mesothelioma; same patient and regimen, preliminary response evaluation) | Patient's condition after treatment (malignant mesothelioma; two treatment cycles, I.V. and I.P.) | Effect on destruction of cells by Fas-ligand [2] | Cell viability following incubation with compound alone [2]
1 | O=S1(=O)CCN(CN2CCS(=O)(=O)NC2)CN1 [taurolidine, Bis-(1,1-dioxoperhydro-1,2,4-thiadiazinyl-4)methane] | up to 2% | Local burning at the site of instillation; also recorded: Thoracic burning of significant grade | Mild local burning at the site of instillation; also recorded: Transient symptomatic hypthension | None | Highly significant reduction of the dyspnea | marked improvement | enhanced the destruction of LN-229 cells by Fas-ligand | reduced
2 | O=S1(=O)CCNCN1 [taurultam] | – | – | – | – | – | – | enhanced the destruction of LN-229 cells by Fas-ligand | reduced
